Experimental data taken from paper PMC12453120, “TrkA of Streptococcus mitis CCUG31611 binds cyclic di-adenosine monophosphate and is required for growth in low potassium conditions” (Microbiology, 2025).

Assays:
[1] = target: T1, TrkA (Streptococcus mitis, UniProt A0ACG7RC27); assay: nanoDSF, isothermal FoldAffinity fit; assay type: binding; details: 500 nM TrkA, 150 mM KCl, 20 mM HEPES, 10% glycerol, pH 7.5
T1 construct: gene SM12261_0089; full-length ORF (1-221 aa), N-terminal 6xHis tag kept, pET30b, E. coli BL21(DE3); Ni-NTA + SEC; two bands on SDS-PAGE, both TrkA by MS; MS peptide positions up to 227 include the tag
T1 sequence (A0ACG7RC27 1-221): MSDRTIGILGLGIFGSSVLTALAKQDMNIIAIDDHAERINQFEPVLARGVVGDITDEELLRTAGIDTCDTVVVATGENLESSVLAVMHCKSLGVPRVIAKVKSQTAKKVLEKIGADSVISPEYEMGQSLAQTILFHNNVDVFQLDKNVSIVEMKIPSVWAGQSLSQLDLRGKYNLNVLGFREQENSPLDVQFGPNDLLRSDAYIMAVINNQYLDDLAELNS
Excerpt: nanoDSF, isothermal FoldAffinity fit on TrkA

[2] = target: TrkA of Streptococcus mitis CCUG31611 (SM12261_0089), recombinant with N-terminal 6x His-tag (Streptococcus mitis CCUG31611); assay: SEC; Sepharose 6 Increase 10-300 GL column, AKTA pure; 150 mM KCl, 20 mM HEPES, pH 7.5; flow 0.2 ml/min; MW estimated from a standard curve of gel filtration markers (12,000-200,000 Da), logMW vs VE/V0
[3] = Tiso 52 °C, unreliable (above the highest ligand concentration, 500 µM)

Nc1ncnc2c1ncn2[C@@H]1O[C@H](COP(=O)(O)O)[C@@H](O)[C@H]1O [AMP]
Kd,app (μM)‡ ([1]; Tiso 54 °C, unreliable (above the highest ligand concentration, 500 µM)): 2,050.000 ± 494.975 µM

Nc1ncnc2c1ncn2[C@@H]1O[C@H](COP(=O)(O)OP(=O)(O)OP(=O)(O)O)[C@@H](O)[C@H]1O [ATP]
Kd,app (μM)‡ [1, 3]: 2,610.000 ± 2390.021 µM

Nc1nc2c(ncn2[C@@H]2O[C@@H]3COP(=O)(O)O[C@H]4[C@@H](O)[C@H](n5cnc6c(=O)[nH]c(N)nc65)O[C@@H]4COP(=O)(O)O[C@H]3[C@H]2O)c(=O)[nH]1 [c-di-GMP]
Kd,app (μM)‡ ([1]; Tiso 54 °C, unreliable (far above the highest ligand concentration, 500 µM)): 100,000.000 ± 0.000 µM

Nc1ncnc2c1ncn2[C@@H]1O[C@H](COP(=O)(O)O[C@H]2[C@@H](O)[C@H](n3cnc4c(N)ncnc43)O[C@@H]2COP(=O)(O)O)[C@@H](O)[C@H]1O [pApA]
Kd,app (μM)‡ [1, 3]: 1,650.000 ± 494.975 µM

TrkA of Streptococcus mitis CCUG31611 (SM12261_0089), recombinant with N-terminal 6x His-tag (natural protein)
stoichiometry N [2]: 8
